According to ChEMBL document CHEMBL5532749, “Synthesis and functional evaluation of proteinogenic amino acid-derived synthetic cannabinoid receptor agonists related to MPP-5F-PICA, MMB-5F-PICA, and MDMB-5F-PICA” (RSC Med Chem, 2024):

Columns and labels:
Assay type in all cases: functional, cell-based
Cannabinoid receptor 1 [1] = biological target: T1, Cannabinoid receptor 1 (Homo sapiens, UniProt P21554); assay: Agonist activity at human CB1 receptor stably transfected in AtT20 cells assessed as maximal efficacy at 30 uM incubated for 60 mins by FLIPR membrane potential assay relative to control; details: filed as agonist
Cannabinoid receptor 2 [2] = biological target: T2, Cannabinoid receptor 2 (Homo sapiens, UniProt P34972); assay: Agonist activity at human CB2 receptor stably transfected in AtT20 cells incubated for 60 mins by FLIPR membrane potential assay
Cannabinoid receptor 2 [3] = biological target: T2, Cannabinoid receptor 2; assay: Agonist activity at human CB2 receptor stably transfected in AtT20 cells assessed as maximal efficacy at 30 uM incubated for 60 mins by FLIPR membrane potential assay relative to control; details: filed as agonist
Cannabinoid receptor 1 [4] = biological target: T1, Cannabinoid receptor 1; assay: Agonist activity at human CB1 receptor stably transfected in AtT20 cells incubated for 60 mins by FLIPR membrane potential assay
Cannabinoid receptor 1 [5] = biological target: T1, Cannabinoid receptor 1; assay: Agonist activity at HA-tagged human CB1 receptor stably transfected in AtT20 cells assessed as maximal efficacy at 30 uM incubated for 60 mins by FLIPR membrane potential assay relative to control; details: filed as agonist
Cannabinoid receptor 2 [6] = biological target: T2, Cannabinoid receptor 2; assay: Agonist activity at HA-tagged human CB2 receptor stably transfected in AtT20 cells assessed as maximal efficacy at 30 uM incubated for 60 mins by FLIPR membrane potential assay relative to control; details: filed as agonist
Cannabinoid receptor 2 [7] = biological target: T2, Cannabinoid receptor 2; assay: Agonist activity at HA-tagged human CB2 receptor stably transfected in AtT20 cells incubated for 60 mins by FLIPR membrane potential assay
Cannabinoid receptor 1 [8] = biological target: T1, Cannabinoid receptor 1; assay: Agonist activity at HA-tagged human CB1 receptor stably transfected in AtT20 cells incubated for 60 mins by FLIPR membrane potential assay
Cannabinoid receptor 2 [9] = biological target: T2, Cannabinoid receptor 2; assay: Agonist activity at human CB2 receptor stably transfected in AtT20 cells assessed as maximal efficacy at 10 uM incubated for 60 mins by FLIPR membrane potential assay relative to control
Cannabinoid receptor 1 [10] = biological target: T1, Cannabinoid receptor 1; assay: Agonist activity at human CB1 receptor stably transfected in AtT20 cells assessed as maximal efficacy at 10 uM incubated for 60 mins by FLIPR membrane potential assay relative to control

T2 sequence (P34972 whole entry): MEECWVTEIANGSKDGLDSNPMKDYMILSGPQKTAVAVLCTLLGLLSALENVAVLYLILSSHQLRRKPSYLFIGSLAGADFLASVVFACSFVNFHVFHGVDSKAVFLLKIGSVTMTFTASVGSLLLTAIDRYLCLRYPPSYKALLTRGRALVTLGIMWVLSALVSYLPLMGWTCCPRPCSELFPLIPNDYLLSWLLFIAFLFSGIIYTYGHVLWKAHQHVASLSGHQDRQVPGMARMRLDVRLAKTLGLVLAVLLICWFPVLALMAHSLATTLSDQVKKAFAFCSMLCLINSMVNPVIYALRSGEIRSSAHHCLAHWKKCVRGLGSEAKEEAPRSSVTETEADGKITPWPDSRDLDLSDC
T1 sequence (P21554 whole entry): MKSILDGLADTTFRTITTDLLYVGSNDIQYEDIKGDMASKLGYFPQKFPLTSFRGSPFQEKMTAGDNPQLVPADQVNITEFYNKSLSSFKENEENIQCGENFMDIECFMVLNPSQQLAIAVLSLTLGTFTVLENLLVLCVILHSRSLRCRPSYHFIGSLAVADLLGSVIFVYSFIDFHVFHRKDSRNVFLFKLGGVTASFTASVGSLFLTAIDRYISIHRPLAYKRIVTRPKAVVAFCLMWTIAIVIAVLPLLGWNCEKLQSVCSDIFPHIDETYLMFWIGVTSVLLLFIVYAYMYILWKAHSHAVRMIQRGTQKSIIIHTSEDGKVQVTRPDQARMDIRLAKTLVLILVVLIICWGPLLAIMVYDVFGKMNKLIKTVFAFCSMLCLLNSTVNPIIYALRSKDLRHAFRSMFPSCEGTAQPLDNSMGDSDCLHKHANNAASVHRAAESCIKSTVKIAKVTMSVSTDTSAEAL

SMILES | Emax (Cannabinoid receptor 1 [1]) [%] | EC50 (Cannabinoid receptor 2 [2]) [nM] | Emax (Cannabinoid receptor 2 [3]) [%] | EC50 (Cannabinoid receptor 1 [4]; read-out: EC50) [nM] | also measured
COC(=O)[C@H](CC(C)C)NC(=O)c1cn(CCCCCF)c2ccccc12 | 136 | 7.16 | 99 | 25.5 | 
COC(=O)[C@@H](NC(=O)c1cn(CCCCCF)c2ccccc12)C(C)C |  |  |  |  | Emax (Cannabinoid receptor 1 [5]): 107%; Emax (Cannabinoid receptor 2 [6]): 94%; EC50 (Cannabinoid receptor 2 [7]): 4.6 nM; EC50 (Cannabinoid receptor 1 [8]): 2.4 nM
COC(=O)[C@H](NC(=O)c1cn(CCCCCF)c2ccccc12)C(C)(C)C | 129 | 56.5 | 96 | 16.4 | 
COC(=O)[C@@H]1CCCN1C(=O)c1cn(CCCCCF)c2ccccc12 | 106 | 13.4 | 86 | 20.7 | 
COC(=O)[C@H](Cc1c[nH]c2ccccc12)NC(=O)c1cn(CCCCCF)c2ccccc12 |  |  |  |  | Emax (Cannabinoid receptor 2 [9]): 37%; Emax (Cannabinoid receptor 1 [10]): 34%
COC(=O)[C@H](Cc1ccccc1)NC(=O)c1cn(CCCCCF)c2ccccc12 | 108 | 7.41 | 99 | 4.63 | EC50 (Cannabinoid receptor 1 [4]; read-out: pEC50 (converted)): 4.57 nM
COC(=O)[C@H]1CCCN1C(=O)c1cn(CCCCCF)c2ccccc12 |  |  |  |  | Emax (Cannabinoid receptor 2 [9]): 7%; Emax (Cannabinoid receptor 1 [10]): 33%
COC(=O)[C@@H](CCCCN)NC(=O)c1cn(CCCCCF)c2ccccc12 |  | 1270 | 74 |  | Emax (Cannabinoid receptor 1 [10]; filed as agonist): 58%
COC(=O)[C@@H](CO)NC(=O)c1cn(CCCCCF)c2ccccc12 |  |  |  |  | Emax (Cannabinoid receptor 2 [9]; filed as agonist): 46%; Emax (Cannabinoid receptor 1 [10]; filed as agonist): 66%
CC[C@H](C)[C@H](NC(=O)c1cn(CCCCCF)c2ccccc12)C(=O)OC | 145 | 19.2 | 124 | 27.6 | 
COC(=O)[C@@H](C)NC(=O)c1cn(CCCCCF)c2ccccc12 | 71 | 478 | 72 |  | 
COC(=O)[C@H](CCC(N)=O)NC(=O)c1cn(CCCCCF)c2ccccc12 |  | 199 | 90 |  | Emax (Cannabinoid receptor 1 [10]; filed as agonist): 94%
COC(=O)[C@H](CCCCN)NC(=O)c1cn(CCCCCF)c2ccccc12 |  |  |  |  | Emax (Cannabinoid receptor 2 [9]): 4%; Emax (Cannabinoid receptor 1 [10]): 12%
COC(=O)[C@@H](NC(=O)c1cn(CCCCCF)c2ccccc12)[C@@H](C)O | 134 | 148 | 60 | 49 | 
CC[C@@H](C)[C@@H](NC(=O)c1cn(CCCCCF)c2ccccc12)C(=O)OC | 121 | 26.8 | 107 | 33.5 | 
COC(=O)CNC(=O)c1cn(CCCCCF)c2ccccc12 |  |  |  |  | Emax (Cannabinoid receptor 2 [9]): 12%; Emax (Cannabinoid receptor 1 [10]; filed as agonist): 40%
COC(=O)[C@@H](CC(C)C)NC(=O)c1cn(CCCCCF)c2ccccc12 | 150 | 53.2 | 112 | 23.9 | 
COC(=O)[C@@H](Cc1ccc(O)cc1)NC(=O)c1cn(CCCCCF)c2ccccc12 |  |  |  |  | Emax (Cannabinoid receptor 2 [9]; filed as agonist): 40%; Emax (Cannabinoid receptor 1 [10]; filed as agonist): 57%
COC(=O)[C@@H](Cc1c[nH]c2ccccc12)NC(=O)c1cn(CCCCCF)c2ccccc12 |  |  |  |  | Emax (Cannabinoid receptor 2 [9]): 17%; Emax (Cannabinoid receptor 1 [10]): 9%
COC(=O)[C@H](CCSC)NC(=O)c1cn(CCCCCF)c2ccccc12 | 151 | 59.6 | 81 | 358 | 
COC(=O)[C@H](C)NC(=O)c1cn(CCCCCF)c2ccccc12 | 108 | 59.5 | 86 | 78.8 | 
COC(=O)[C@@H](CCSC)NC(=O)c1cn(CCCCCF)c2ccccc12 | 139 | 95 | 90 | 206 | 
COC(=O)[C@H](NC(=O)c1cn(CCCCCF)c2ccccc12)C(C)C | 130 | 16.2 | 107 | 104 | 
COC(=O)[C@H](NC(=O)c1cn(CCCCCF)c2ccccc12)[C@H](C)O | 105 | 93.4 | 81 | 2310 | 
COC(=O)[C@@H](CCC(N)=O)NC(=O)c1cn(CCCCCF)c2ccccc12 | 116 | 445 | 76 | 3630 | 
COC(=O)[C@@H](Cc1ccccc1)NC(=O)c1cn(CCCCCF)c2ccccc12 | 107 | 586 | 57 | 441 | 
COC(=O)[C@H](Cc1ccc(O)cc1)NC(=O)c1cn(CCCCCF)c2ccccc12 | 135 | 87.7 | 98 | 182 | 
COC(=O)[C@@H](NC(=O)c1cn(CCCCCF)c2ccccc12)C(C)(C)C |  |  |  |  | Emax (Cannabinoid receptor 1 [5]): 110%; Emax (Cannabinoid receptor 2 [6]): 94%; EC50 (Cannabinoid receptor 2 [7]): 7.4 nM; EC50 (Cannabinoid receptor 1 [8]): 0.45 nM
COC(=O)[C@H](CO)NC(=O)c1cn(CCCCCF)c2ccccc12 | 123 | 625 | 41 | 200 | 
